Patent publication US20260124309A1, “STAT6 DEGRADERS AND USES THEREOF” (Kymera Therapeutics, Inc., priority 2023, published 2026)

Tests used:
STAT6 = target: T1, STAT6 (Homo sapiens, UniProt P42226); experiment: STAT6 MSD degradation in A549 cells; type: cell-based; conditions: 24 h
T1 construct: endogenous in cells; host or cells: A549
T1 sequence (P42226 1-847): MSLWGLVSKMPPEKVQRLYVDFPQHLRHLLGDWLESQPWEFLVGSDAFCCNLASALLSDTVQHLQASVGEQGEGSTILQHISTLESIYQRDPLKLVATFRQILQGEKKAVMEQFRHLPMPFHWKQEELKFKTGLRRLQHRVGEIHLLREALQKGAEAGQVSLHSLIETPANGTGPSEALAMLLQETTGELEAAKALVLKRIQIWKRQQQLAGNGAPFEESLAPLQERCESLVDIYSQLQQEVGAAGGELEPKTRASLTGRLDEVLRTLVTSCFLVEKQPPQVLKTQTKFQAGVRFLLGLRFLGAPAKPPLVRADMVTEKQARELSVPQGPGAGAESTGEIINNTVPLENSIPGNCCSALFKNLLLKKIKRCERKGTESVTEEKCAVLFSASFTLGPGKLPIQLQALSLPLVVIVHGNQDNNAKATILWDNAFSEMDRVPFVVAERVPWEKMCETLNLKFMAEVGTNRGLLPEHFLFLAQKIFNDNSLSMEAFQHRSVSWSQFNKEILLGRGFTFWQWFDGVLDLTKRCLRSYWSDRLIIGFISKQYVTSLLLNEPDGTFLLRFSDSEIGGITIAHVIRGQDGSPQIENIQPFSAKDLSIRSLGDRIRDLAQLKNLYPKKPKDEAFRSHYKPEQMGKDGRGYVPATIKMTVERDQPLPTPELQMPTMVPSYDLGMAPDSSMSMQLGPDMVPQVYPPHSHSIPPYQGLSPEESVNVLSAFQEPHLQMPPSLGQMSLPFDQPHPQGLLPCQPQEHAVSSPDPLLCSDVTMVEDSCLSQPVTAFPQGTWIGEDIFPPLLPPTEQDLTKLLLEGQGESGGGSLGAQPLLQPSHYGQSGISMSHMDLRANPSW
Protocol: Degradation of STAT6 in cells was quantitatively measured using Meso Scale Discovery (MSD) technology. A549 cells were seeded in 96-well plates with a density of 1.5×10e4 to 5×10e5 cells per well in 100 μl fresh media. Compounds were then added to the assay plates with a final top concentration of up to 10 uM in a 1:3 dilution series with total of 9 doses. The assay plates were then incubated for 4 to 24 hours at 37° C. under 5% CO2. The assay plates were then centrifuged for 5 minutes and the cell pellets were treated with 100 μl/well RIPA lysis buffer (Boston Bioproducts, BP-115D) with protease and phosphatase inhibitors (Roche, 05892791001 and 04906837001). To prepare the MSD assay plates (MSD, L15XA), the plates were coated with the capture antibody (Abnova, H00006778) in PBS, at 40 μl/well. The plates were then incubated overnight at 4° C., washed 1 time with 150 μl/well TBST buffer (Cell Signaling Technology, #9997S) and blocked with 150 μl/well blocking buffer (MSD, R93BA-4). Cell lysates were then added to MSD assay plates and the plates were incubated at room temperature for 1 hour. The plates were then washed 3 times with 150 μl/well TBST buffer and 25 μl/well primary detection antibody (Cell Signaling Technology, #5397S). The assay plates were then incubated at room temperature for 1 hour, washed 3 times with 150 μl/well TBST buffer, and 25 μl/well secondary detection antibody, SULFO-TAG anti-rabbit antibody (MSD, R32AB-1) were added. The assay plates were then incubated at room temperature for 1 hour, washed 3 times with 150 μl/well TBST buffer, and 150 μl/well MSD reading buffer (MSD, R92TC-2) were added. The plates were then analyzed by an MSD reader. The data was analyzed by GraphPad Prism and the dose dependent STAT6 degradation was fit using the four-parameter inhibitor vs. response nonlinear regression.
The letter codes for DC50 (nM) include: A (<1 nM); B (1-10 nM); C (>10-100 nM); D (>100-1000 nM); E (>1000 nM); and F (not tested). The letter codes for Dmax (oo) include: A (>90%); B (>70-90%); C (>50-70%); D ([…]); and F (not tested).

[1] = target: T2, biotinylated truncated STAT6 (123-632)-avi (Homo sapiens, UniProt P42226); experiment: STAT6 HTRF binding assay; conditions: HTRF binding, 0.15 nM biotinylated truncated STAT6 (123-632)-avi, 20 nM fluorescein-labeled probe
T2 construct: biotinylated truncated STAT6 (123-632)-avi purified from E. coli; made in house; host or cells: E. coli
T2 sequence (P42226 123-632 limits assumed): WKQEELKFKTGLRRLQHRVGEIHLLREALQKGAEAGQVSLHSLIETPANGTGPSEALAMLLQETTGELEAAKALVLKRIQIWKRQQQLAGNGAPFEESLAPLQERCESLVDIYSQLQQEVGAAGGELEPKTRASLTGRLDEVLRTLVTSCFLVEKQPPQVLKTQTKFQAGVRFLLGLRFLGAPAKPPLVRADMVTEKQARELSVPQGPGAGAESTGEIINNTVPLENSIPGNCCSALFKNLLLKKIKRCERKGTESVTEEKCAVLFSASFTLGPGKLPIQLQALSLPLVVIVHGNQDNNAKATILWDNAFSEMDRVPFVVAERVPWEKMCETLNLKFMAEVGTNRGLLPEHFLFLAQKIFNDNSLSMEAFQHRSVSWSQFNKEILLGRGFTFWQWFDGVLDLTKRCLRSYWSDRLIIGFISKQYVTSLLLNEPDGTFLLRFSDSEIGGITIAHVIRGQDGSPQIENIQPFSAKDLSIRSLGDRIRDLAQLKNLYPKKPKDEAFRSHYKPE
Protocol: HTRF binding assays were performed using 0.15 nM biotinylated truncated STAT6 (123-632)-avi purified from E. coli, 1× Streptavidin-terbium (CisBio) prepared by mixing SA-Tb in PPI detection buffer (CisBio), 20 nM proprietary fluorescein-labeled probe, and test compounds in assay buffer consisting of 50 mM HEPES-Na pH 7.5, 100 mM NaCl, 1 mM EDTA, 2 mM DTT, 0.1% Tween-20 with a final volume of 20 uL. Compound stocks were dissolved at 10 mM in 100% DMSO and 11 point titration with 3 fold serial dilution was performed in white, opaque 384 well microplates. Reaction plates were incubated at room temperature for 30 minutes. Plates were centrifuged at low rpm for 5 mins, and the ratio of fluorescence intensities were measured at emission wavelengths for fluorescein acceptor (520 nm) and terbium donor (495 nm) on Envision Plate reader. % Inhibition was calculated from the 520/495 ratio generated by using proprietary positive control compound for 100% inhibition and DMSO only reactions for 0% inhibition. Data was processed and dose response curves were generated using GraphPad Prism to determine the concentration required for inhibiting 50% of the HTRF signal (IC50).
The letter codes for IC50 (μM) include: A (<0.1 μM); B (0.1-1 μM); C (>1-10 μM); D (>10-100 μM); E (>100 μM); and F (not tested).

STAT6-HiBiT = target: T3, STAT6-HiBiT (Homo sapiens, UniProt P42226); experiment: STAT6 HiBiT degradation in A549 (STAT6-HiBiT) cells; type: cell-based; conditions: 24 h
T3 construct: Degradation of STAT6 in endogenously tagged STAT6-HiBiT A549 cells; endogenous in cells; host or cells: A549 (STAT6-HiBiT) knock-in cells
T3 sequence (P42226 1-847): T1 sequence (P42226 1-847)
Protocol: Degradation of STAT6 in endogenously tagged STAT6-HiBiT A549 cells was quantitatively measured using the Nano-Glo HiBiT Lytic Detection System (Promega, 3040). A549 (STAT6-HiBiT) cells were seeded in 384-well plates with a density of 1.25k cells per well in 20 μl fresh media. Compounds were then added to the assay plates using the Apricot S3 with a final top concentration of up to 10 uM in a 4-fold dilution series with total of 10 doses. The assay plates were then incubated for 24 hours at 37° C. under 5% CO2. At the assay endpoint, 20 μL of Nano-Glo HiBiT Lytic Reagent was added to each well and agitated on a plate shaker at 300 rpm for 10 minutes at room temperature. Luminescence was read on PHERAStar FSX Instrument (Is integration time). The data was analyzed by GraphPad Prism and the dose dependent STAT6 degradation was fit using the four-parameter inhibitor vs. response nonlinear regression.
The letter codes for DC50 (nM) include: A (<1 nM): B (1-10 nM); C (>10-100 nM); D (>100-1000 nM); E (>1000 nM); and F (not tested). The letter codes for Dmax (%) include: A (>90%); B (>70-90%); C (>50-70%); D (<50%); and E (not tested).

CN(C)C(=O)c1cc2c(-c3ccc(C4CCN(c5ccc(C6CCC(=O)NC6=O)cc5F)CC4)cc3)cc(C3=CCCN(C(=O)CCn4ccnn4)C3)c(F)c2[nH]1 (centres unmarked) [Example I-1015, 6-(1-(3-(1H-1,2,3-triazol-1-yl)propanoyl)-1,2,5,6-tetrahydropyridin-3-yl)-4-(4-(1-(4-(2,6-dioxopiperidin-3-yl)-2-fluorophenyl)piperidin-4-yl)phenyl)-7-fluoro-N,N-dimethyl-1H-indole-2-carboxamide]
DC50 (STAT6): < 1 nM
Dmax (STAT6): 70 to 90%
IC50 [1]: < 100 nM
DC50 (STAT6-HiBiT): < 1 nM
Dmax (STAT6-HiBiT): > 90%
